In one data set the test system is HepG2. As to the kind of experiment: MTT assay, HepG2 cells. It is filed as cell-based, human. Conditions: Homo sapiens, HepG2, 72 h incubation, read-out: Half maximal inhibitory concentration (IC50) values, HepG2. From the text:
(§1) The human hepatocellular carcinoma cell line (HepG2), human hepatocellular carcinoma cell line (Bel-7402), human cervical cancer cell line (Hela), human breast adenocarcinoma cell line (MCF-7) and Madin-Darby canine kidney cell line (MDCK) were obtained from the Chinese Academy of Medical Sciences and Peking Union Medical College. Cultures were maintained as monolayer in RPMI-1640/DMEM supplemented with 10% (v/v) fetal bovine serum (FBS) and 1% (v/v) penicillin/streptomycin (Thermo Technologies, New York, NY, United States) under a humidified atmosphere containing 5% CO2 at 37°C. The BoA derivatives and positive control drugs (BoA and DDP) under study were dissolved in DMSO (Sigma, St. Louis, MO, United States) and added at required concentrations to the cell culture. Cells incubated without the preparations served as the control.
(§2) The antitumor activity was assessed by MTT assay, as previously reported ([Fang et al., 2018]). Each tested compound and positive control drugs were dissolved in DMSO and diluted with the medium to the test concentrations, and the final concentration of DMSO in the culture medium was controlled at less than 0.5% (v/v). Briefly, cells were cultured at 37°C and dispersed in replicates in 96-well plates with HepG2, Bel-7402, HeLa, MCF-7 and MDCK for 24 h. Fresh medium along with compounds (BoAA-BoAE, BoA2A-BoA2G, BoA3A-BoA3G, BoA4A-BoA4G) at different concentrations was then added to individual wells and incubated for 72 h, with BoA and DDP as the positive control. Experiments on FXR expression were separated into three groups: Control (PBS), BoA2C (8 μM), and BoA2C (8 μM) + DY268 (10 μM) ([Giordano et al., 2016]), with three repeating wells in each. In separate wells, BoA2C and DY268 were introduced and cultured for 72 h. After 72 h, the cell was incubated with MTT solution (0.5 mg/ml) for an additional 4 h at 37°C. The produced formazan crystals were solubilized with DMSO, and the optical density of solution was measured at 570 nm using a plate reader (BIORAD 550 spectrophotometer, Bio-rad Life Science Development Ltd., Beijing, China). Wells without drugs were used to be blanks. The IC50 values were defined as the concentration of compounds that produced a 50% proliferation inhibition of surviving cells and calculated using the Graph Pad Prism 5. The inhibitory rate was calculated in the following Equation 1, where OD is the optical density: % inhibition=[1−(OD Sample group−OD Blank group)/(OD Control group−OD Blank group)]×100% (1)

For a further data set, the system named is Bel-7402. As to the kind of experiment: MTT assay, Bel-7402 cells. The format is cell-based, human. Conditions: Homo sapiens, Bel-7402, 72 h incubation, read-out: Half maximal inhibitory concentration (IC50) values, Bel-7402.
From the text: as §1, §2

Another data set concerns Hela. As to the kind of experiment: MTT assay, Hela cells. It is filed as cell-based, human. Conditions: Homo sapiens, HeLa, 72 h incubation, read-out: Half maximal inhibitory concentration (IC50) values, Hela.
From the text: as §1, §2
In general terms: Formazan colour is commonly taken as a measure of viable cells.

The next data set relates to MCF-7. As to the kind of experiment: MTT assay, MCF-7 cells. It is filed as cell-based, human. Conditions: Homo sapiens, MCF7, 72 h incubation, read-out: Half maximal inhibitory concentration (IC50) values, MCF-7.
From the text: as §1, §2

The subject of another data set is MDCK. As to the kind of experiment: MTT assay, MDCK normal cell line. The format is cell-based, canine. Conditions: Canis lupus familiaris, MDCK, 72 h incubation, normal cell line, read-out: Half maximal inhibitory concentration (IC50) values, MDCK.
From the text: as §1, §2

In a further data set the test system is LNCaP cells. More on the design: method as in list in b5. Conditions: Figure 1, representative BoA derivatives; ref list in b5; cited from earlier work.
The next data set concerns G-361 cells. Set-up: method as in list in b5. Conditions: Figure 1, representative BoA derivatives; ref list in b5; cited from earlier work.
A further data set relates to A375 cells. More on the design: method as in list in b5. Conditions: Figure 1, representative BoA derivatives; ref list in b5; cited from earlier work.
The test system of another data set is Hela cells. Set-up: method as in list in b5. Conditions: Figure 1, representative BoA derivatives; ref list in b5; cited from earlier work.
For data set [1], the system named is MCF-7 breast cancer cells. As to the kind of experiment: MTT cell proliferation with FXR antagonist DY268. The format is cell-based, human. Conditions: MCF-7, BoA2C (8 μM) + DY268 (10 μM), 24, 48 and 72 h. The protocol:
as §2, with “In separate wells, BoA2C and DY268 were introduced and cultured for 72 h.” left out, “The inhibitory rate was calculated in the following Equation 1, where OD is the optical density: % inhibition=[1−(OD Sample group−OD Blank group)/(OD Control group−OD Blank group)]×100% (1)” left out

In data set [2] the test system is LNCaP prostate cancer cells. More on the design: method as in Saxena et al., 2006. Conditions: 100 μM; ref Saxena et al., 2006; cited from earlier work.
For data set [3], the system named is normally proliferating fibroblast cells. More on the design: method as in Saxena et al., 2006. Conditions: ref Saxena et al., 2006; cited from earlier work.

Where only a bound is given, the exact number is not on record here.

Broadly, the melting point is the temperature of the solid-liquid transition.

`C=C(C)[C@@H]1CC[C@]2(C(=O)OCCCOC(=O)c3nc(C)c(C)nc3C)CC[C@]3(C)[C@H](CC[C@@H]4[C@@]5(C)CCC(=O)C(C)(C)[C@@H]5CC[C@]43C)[C@@H]12` [BoA3E, (3,5,6-Trimethylpyrazin-2-acyloxy)-propyl-3-oxolup-20(29)-en-28-oate]: the melting point is 57 to 59 °C. In the data set with HepG2, the IC50 is 20.2 ± 0.53 µM. The IC50 with Bel-7402 worked out at 11.2 ± 1.55 µM. Also, the IC50 with Hela came to 10.1 ± 0.15 µM. Further, in the data set on MCF-7, the IC50 amounted to 29.5 ± 0.89 µM. The IC50 with MDCK was over 30 µM.
Compound `C=C(C)[C@@H]1CC[C@]2(C(=O)OCCCOC(=O)c3ccncn3)CC[C@]3(C)[C@H](CC[C@@H]4[C@@]5(C)CCC(=O)C(C)(C)[C@@H]5CC[C@]43C)[C@@H]12` [BoA3F] registered a melting point of 50 to 52 °C. Further, the IC50 in the data set on HepG2 was over 30 µM. Besides, the IC50 with Bel-7402 amounted to 22.3 ± 5.85 µM. Further, the IC50 in the data set on Hela turned out to be 21.1 ± 6.66 µM. Also, the IC50 in the data set with MCF-7 was over 30 µM. The IC50 with MDCK came out at 17.9 ± 0.82 µM.
Compound `C=C(C)[C@@H]1CC[C@]2(C(=O)OCCCOC(=O)c3ccnnc3)CC[C@]3(C)[C@H](CC[C@@H]4[C@@]5(C)CCC(=O)C(C)(C)[C@@H]5CC[C@]43C)[C@@H]12` [BoA3G] yielded a melting point of 68 to 71 °C. For the same compound, in the data set with HepG2, the IC50 was over 30 µM. For the same compound, in the data set on Bel-7402, the IC50 turned out to be 25.2 ± 2.44 µM. Further, the IC50 with Hela turned out to be 4 ± 0.32 µM. Also, the IC50 with MCF-7 was 13.4 ± 0.51 µM. In the data set on MDCK, the IC50 turned out to be 18.5 ± 0.42 µM.
Turning to `C=C(C)[C@@H]1CC[C@]2(C(=O)OCCCCOC(=O)c3cnccn3)CC[C@]3(C)[C@H](CC[C@@H]4[C@@]5(C)CCC(=O)C(C)(C)[C@@H]5CC[C@]43C)[C@@H]12` [BoA4A, (Pyrazin-2-acyloxy)-butyl-3-oxolup-20(29)-en-28-oate], the melting point is 69 to 71 °C. Further, the IC50 in the data set with HepG2 is 12.9 ± 4 µM. Also, the IC50 in the data set on Bel-7402 came out at 9.39 ± 0.73 µM. Besides, in the data set with Hela, the IC50 turned out to be 13.82 ± 0.12 µM. In the data set with MCF-7, the IC50 came to 9.13 ± 0.4 µM. Also, in the data set on MDCK, the IC50 came out at 25.3 ± 4.14 µM.
`C=C(C)[C@@H]1CC[C@]2(C(=O)OCCCCOC(=O)c3nccnc3C)CC[C@]3(C)[C@H](CC[C@@H]4[C@@]5(C)CCC(=O)C(C)(C)[C@@H]5CC[C@]43C)[C@@H]12` [BoA4B, (3-Methylpyrazin-2-acyloxy)-butyl-3-oxolup-20(29)-en-28-oate]: the melting point was in the range of 54 to 55 °C. Also, the IC50 with HepG2 stood at 21.8 ± 2.46 µM. In addition, the IC50 with Bel-7402 was determined as 3.92 ± 1.1 µM. For the same compound, in the data set with Hela, the IC50 turned out to be 11.5 ± 0.93 µM. In addition, the IC50 in the data set on MCF-7 was over 30 µM. For the same compound, the IC50 with MDCK is over 30 µM.
Compound `C=C(C)[C@@H]1CC[C@]2(C(=O)OCCCCOC(=O)c3nc(C)c(C)nc3C)CC[C@]3(C)[C@H](CC[C@@H]4[C@@]5(C)CCC(=O)C(C)(C)[C@@H]5CC[C@]43C)[C@@H]12` [BoA4E, (3,5,6-Trimethylpyrazin-2-acyloxy)-butyl-3-oxolup-20(29)-en-28-oate] showed a melting point of 124 to 126 °C. Further, the IC50 with HepG2 is over 30 µM. Moreover, the IC50 in the data set on Bel-7402 was over 30 µM. Besides, the IC50 with Hela is over 30 µM. The IC50 with MCF-7 was over 30 µM. For the same compound, the IC50 with MDCK is over 30 µM.
`C=C(C)[C@@H]1CC[C@]2(C(=O)OCc3nccnc3C)CC[C@]3(C)[C@H](CC[C@@H]4[C@@]5(C)CCC(=O)C(C)(C)[C@@H]5CC[C@]43C)[C@@H]12` [BoAB, (3-Methylpyrazin-2-yl)-methyl-3-oxolup-20(29)-en-28-oate] gave a melting point of 80 to 82 °C. Also, the IC50 in the data set with HepG2 was found to be 11.1 ± 0.27 µM. Moreover, the IC50 in the data set with Bel-7402 turned out to be 7.73 ± 1.92 µM. Besides, the IC50 with Hela came out at 11.8 ± 0.58 µM. The IC50 in the data set on MCF-7 was 10 ± 0.26 µM. For the same compound, the IC50 in the data set on MDCK is over 30 µM.
Take `C=C(C)[C@@H]1CC[C@]2(C(=O)OCc3cnc(C)cn3)CC[C@]3(C)[C@H](CC[C@@H]4[C@@]5(C)CCC(=O)C(C)(C)[C@@H]5CC[C@]43C)[C@@H]12` [BoAC, (5-Methylpyrazin-2-yl)-methyl-3-oxolup-20(29)-en-28-oate]: the melting point was 125 to 127 °C. Moreover, in the data set on HepG2, the IC50 was determined as 8.95 ± 4.76 µM. The IC50 with Bel-7402 worked out at 8.24 ± 2.43 µM. For the same compound, the IC50 with Hela was 11.9 ± 1.05 µM. For the same compound, the IC50 in the data set with MCF-7 stood at 8.94 ± 1.3 µM. Moreover, in the data set with MDCK, the IC50 is over 30 µM.
Turning to `C=C(C)[C@@H]1CC[C@]2(C(=O)OCc3cncc(C)n3)CC[C@]3(C)[C@H](CC[C@@H]4[C@@]5(C)CCC(=O)C(C)(C)[C@@H]5CC[C@]43C)[C@@H]12` [BoAD, (6-Methylpyrazin-2-yl)-methyl-3-oxolup-20(29)-en-28-oate], the melting point was 119 to 121 °C. Besides, the IC50 with HepG2 is 5.17 ± 1.33 µM. For the same compound, the IC50 with Bel-7402 came to 7.51 ± 1.4 µM. Further, the IC50 in the data set on Hela was determined as 10.7 ± 0.32 µM. Moreover, the IC50 in the data set on MCF-7 was determined as 8.24 ± 0.87 µM. The IC50 in the data set with MDCK was over 30 µM.
`C=C(C)C1CC[C@]2(C(=O)NCCCCC(NC(=O)OC(C)(C)C)C(=O)O)CC[C@]3(C)[C@H](CC[C@@H]4[C@@]5(C)CCC(=O)C(C)(C)[C@@H]5CC[C@]43C)[C@@H]12` (stereo partly shown) [Compound 1]: the IC50 in the data set on LNCaP cells is 10 µM.
For the compound `C=C(C)C1CCC2(C(=O)OC3OC(COC(C)=O)C(OC(C)=O)C(OC(C)=O)C3OC(C)=O)CCC3(C)C(CCC4C5(C)CCC(O)C(C)(C)C5CCC43C)C12` (stereo not shown) [Compound 2], the IC50 in the data set on G-361 cells is 3.4 µM.
Consider `C=C(C)[C@@H]1CC[C@]2(C(=O)Nc3cncc4ccccc34)CC[C@]3(C)C(CCC4[C@@]5(C)CC[C@H](OC(C)=O)C(C)(C)C5CC[C@]43C)C12` (stereo partly shown) [Compound 3], for which the IC50 in the data set with A375 cells is 1.48 µM.
In the case of `C=C(C)[C@@H]1CC[C@]2(C(=O)OCCN3CCNCC3)CC[C@]3(C)C(CCC4[C@@]5(C)CC[C@H](O)C(C)(C)C5CC[C@]43C)C12` (stereo partly shown) [Compound 4], the IC50 in the data set with Hela cells was 2.05 µM.
For the compound `COc1cccc(Cn2cc(C(=O)Nc3ccc(C)c(S(=O)(=O)N4CCOCC4)c3)c(-c3ccc(C)cc3)n2)c1` [DY268], the “effect of DY268 on BoA2C antiproliferative activity” value in [1] was “reversed BoA2C inhibitory impact on the growth of MCF-7 breast cancer cells”.
Consider `C=C(C)C1CC[C@]2(C(=O)NCCCCC(NC(=O)OC(C)(C)C)C(=O)O)CC[C@]3(C)[C@H](CC[C@@H]4[C@@]5(C)CCC(=O)C(C)(C)[C@@H]5CC[C@]43C)[C@@H]12` (stereo partly shown) [boc-lysinated-betulonic acid], for which, in [2], the “inhibition of LNCaP prostate cancer cells” value is recorded as 95.7%. Also, the “effect on normally proliferating fibroblast cells” value in [3] is given as “little effect on normally proliferating fibroblast cells”.

Source of the values: PMC9486541, “Design, synthesis and cytotoxic evaluation of novel betulonic acid-diazine derivatives as potential antitumor agents” (Frontiers in Chemistry, 2022).
